Data published in patent publication US8927500B2, “Peptidomimetic macrocycles” (Aileron Therapeutics, Inc., priority 2012, dated 2015).
pIC50, pKi: −log10 of the molar value. Where a SMILES comes first, the peptide text is derived from it. Bridges are numbered along the chain shown (N, C = ends). [ ]: non-standard residue; d: D form. R8 = C=CCCCCCC[C@@](C)(N)C(=O)O; Cba = N[C@@H](CC1CCC1)C(=O)O; S5 = C=CCCC[C@](C)(N)C(=O)O; Nle = CCCC[C@H](N)C(=O)O; Aib = CC(C)(N)C(=O)O

How the values were obtained:
[1] = test system: Caspase 3; assay: Caspase 3 detection assay in SJSA1 cells; format: cell-based; conditions: 48 h, Caspase 3 activation over DMSO-treated cells; for caspase 3 uM: 3 uM peptide; for caspase 10 uM: 10 uM peptide; for caspase 30 uM: 30 uM peptide; for caspase 0.3 uM: 0.3 uM peptide
[2] = target: MDM2 (Homo sapiens, UniProt Q00987); assay: Competitive fluorescence polarization assay for MDM2; format: binding; conditions: competitive FP assay, MDM2; for pIC50: read-out: IC50 (MDM2); for pKi: read-out: Ki (MDM2)
[3] = target: T1, MDMX (Homo sapiens, UniProt O15151); assay: Competitive fluorescence polarization assay for MDMX; format: binding; conditions: competitive FP assay; for pIC50: read-out: IC50 (MDMX); for pKi: read-out: Ki (MDMX)
T1 sequence (O15151 1-125): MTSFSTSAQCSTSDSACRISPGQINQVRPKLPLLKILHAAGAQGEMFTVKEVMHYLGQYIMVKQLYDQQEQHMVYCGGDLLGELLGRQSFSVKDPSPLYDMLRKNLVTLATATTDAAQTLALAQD

Sequence of MDM2 (Q00987 1-125): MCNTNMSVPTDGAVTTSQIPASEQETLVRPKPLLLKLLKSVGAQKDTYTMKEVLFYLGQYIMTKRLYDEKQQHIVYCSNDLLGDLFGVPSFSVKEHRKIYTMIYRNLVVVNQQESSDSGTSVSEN

Compound | pIC50 [2] | pKi [2] | pIC50 [3] | pKi [3] | caspase 3 uM [1] | caspase 10 uM [1] | caspase 30 uM [1] | caspase 0.3 uM [1] | caspase 1 uM ([1]; 1 uM peptide)
CC(=O)N[C@@H](CC(C)C)C(=O)N[C@H](C(=O)N[C@@H](Cc1ccccc1)C(=O)N[C@]1(C)CCCCCCC=CCCC[C@@](C)(C(=O)N[C@@H](C)C(=O)N[C@H](C(=O)NCC(N)=O)C(C)C)NC(=O)[C@H](CC(C)C)NC(=O)[C@H](CCC(N)=O)NC(=O)[C@H](C)NC(=O)[C@H](Cc2c[nH]c3ccccc23)NC(=O)[C@H](Cc2ccc(O)cc2)NC(=O)[C@H](C)NC1=O)[C@@H](C)O (single isomer, unassigned) [compound 109] | – | – | – | – | 4 | 16 | 25 | – | –
CC(=O)N[C@@H](CC(C)C)C(=O)N[C@H](C(=O)N[C@@H](Cc1ccccc1)C(=O)N[C@]1(C)CCCCCCC=CCCC[C@@](C)(C(=O)N[C@@H](CO)C(=O)N[C@@H](C)C(=O)NC(C)(C)C(N)=O)NC(=O)[C@H](CC(C)C)NC(=O)[C@H](CCC(N)=O)NC(=O)[C@H](C)NC(=O)[C@H](Cc2c[nH]c3ccccc23)NC(=O)[C@H](Cc2ccc(O)cc2)NC(=O)[C@H](C)NC1=O)[C@@H](C)O [compound 10] (Ac-LTF[R8]AYWAQL[S5]SA[Aib]-NH2; staple 4-11) | 6.00 to 7.00 | 7.00 to 8.00 | 6.00 to 7.00 | 7.00 to 8.00 | 1 | 17 | 32 | 1 | –
CC(=O)N[C@@H](CC(C)C)C(=O)N[C@H](C(=O)N[C@@H](Cc1ccccc1)C(=O)N[C@]1(C)CCCCCCC=CCCC[C@@](C)(C(=O)N[C@@H](C)C(=O)N[C@@H](Cc2c[nH]cn2)C(=O)N[C@@H](Cc2ccccc2)C(=O)N[C@@H](C)C(N)=O)NC(=O)[C@H](CC(C)C)NC(=O)[C@H](CCC(N)=O)NC(=O)[C@H](C)NC(=O)[C@H](Cc2c[nH]c3ccccc23)NC(=O)[C@H](Cc2ccc(O)cc2)NC(=O)[C@H](C)NC1=O)[C@@H](C)O [compound 50] (Ac-LTF[R8]AYWAQL[S5]AHFA-NH2; staple 4-11) | 7.00 to 8.00 | > 8.00 | 6.00 to 7.00 | 7.00 to 8.00 | 8 | 29 | 29 | – | –
CC[C@H](C)[C@H](NC(=O)[C@H](C)NC(=O)[C@H](C)NC(=O)[C@]1(C)CCCC=CCCCCCC[C@@](C)(NC(=O)[C@H](Cc2ccccc2)NC(=O)[C@@H](NC(=O)[C@H](CC(C)C)NC(C)=O)[C@@H](C)O)C(=O)N[C@@H](C)C(=O)N[C@@H](Cc2ccc(O)cc2)C(=O)N[C@@H](Cc2c[nH]c3ccccc23)C(=O)N[C@@H](C)C(=O)N[C@@H](CCC(N)=O)C(=O)N[C@@H](CC(C)C)C(=O)N1)C(=O)N[C@H](C)C(N)=O (single isomer, unassigned) [compound 70] | 6.00 to 7.00 | > 8.00 | 6.00 to 7.00 | 7.00 to 8.00 | 1 | 9 | 26 | – | –
CC(=O)N[C@@H](C)C(=O)N[C@@H](C)C(=O)N[C@@H](CC(C)C)C(=O)N[C@H](C(=O)N[C@@H](Cc1ccccc1)C(=O)N[C@]1(C)CCCCCCC=CCCC[C@@](C)(C(=O)N[C@@H](CO)C(=O)N[C@@H](C)C(=O)N[C@@H](C)C(=O)N[C@@H](C)C(=O)N[C@H](C)C(N)=O)NC(=O)[C@H](CC2CCC2)NC(=O)[C@H](CCC(N)=O)NC(=O)[C@H](C)NC(=O)[C@H](Cc2c[nH]c3ccccc23)NC(=O)[C@H](Cc2ccc(O)cc2)NC(=O)[C@H](CCC(=O)O)NC1=O)[C@@H](C)O (single isomer, unassigned) [compound 358] | – | – | – | – | 3 | 6 | 24 | 1 | 2
CC(=O)N[C@@H](CC(C)C)C(=O)N[C@H](C(=O)N[C@@H](Cc1ccccc1)C(=O)N[C@]1(C)CCCCCC/C=C/CCC[C@@](C)(C(=O)N[C@@H](C)C(=O)NC(C)(C)C(=O)N[C@@H](C)C(=O)N[C@@H](C)C(=O)N[C@@H](C)C(=O)N[C@H](C)C(N)=O)NC(=O)[C@H](CC(C)C)NC(=O)[C@H](CCC(N)=O)NC(=O)[C@H](C)NC(=O)[C@H](Cc2c[nH]c3ccccc23)NC(=O)[C@H](Cc2ccc(O)cc2)NC(=O)[C@H](CCC(=O)O)NC1=O)[C@@H](C)O [compound 562] (Ac-LTF[R8]EYWAQL[S5]A[Aib]AAA[dA]-NH2; staple (E) 4-11) | – | 7.00 to 8.00 | – | 7.00 to 8.00 | – | – | – | – | –
CC(=O)N[C@@H](CC(C)C)C(=O)N[C@H](C(=O)N[C@@H](Cc1ccccc1)C(=O)N[C@]1(C)CCCCCCC=CCCC[C@@](C)(C(=O)N[C@@H](CO)C(=O)N[C@@H](C)C(=O)N[C@@H](C)C(N)=O)NC(=O)[C@H](CC(C)C)NC(=O)[C@H](CCC(N)=O)NC(=O)[C@H](C)NC(=O)[C@H](Cc2c[nH]c3ccccc23)NC(=O)[C@H](CO)NC(=O)[C@H](C)NC1=O)[C@@H](C)O (single isomer, unassigned) [compound 167] | 7.00 to 8.00 | > 8.00 | 6.00 to 7.00 | 6.00 to 7.00 | – | – | – | – | –
CCCC[C@H](NC(=O)[C@H](C)NC(=O)[C@H](C)NC(=O)[C@]1(C)CCCC=CCCCCCC[C@@](C)(NC(=O)[C@H](Cc2ccccc2)NC(=O)[C@@H](NC(=O)[C@H](CC(C)C)NC(=O)CN(C)C)[C@@H](C)O)C(=O)N[C@@H](C)C(=O)N[C@@H](Cc2ccc(O)cc2)C(=O)N[C@@H](Cc2c[nH]c3ccccc23)C(=O)N[C@@H](C)C(=O)N[C@@H](CCC(N)=O)C(=O)N[C@@H](CC(C)C)C(=O)N1)C(=O)N[C@@H](C)C(N)=O (single isomer, unassigned) [compound 443] | 7.00 to 8.00 | > 8.00 | 7.00 to 8.00 | 7.00 to 8.00 | – | – | – | – | –
CCCC[C@H](NC(=O)[C@H](C)NC(=O)[C@H](C)NC(=O)[C@]1(C)CCCC=CCCCCCC[C@@](C)(NC(=O)[C@H](Cc2ccccc2)NC(=O)[C@@H](NC(=O)[C@H](CC(C)C)NC(C)=O)[C@@H](C)O)C(=O)N[C@@H](C)C(=O)N[C@@H](Cc2ccc(O)cc2)C(=O)N[C@@H](Cc2c[nH]c3ccccc23)C(=O)N[C@@H](C)C(=O)N[C@@H](CCC(N)=O)C(=O)N[C@@H](CC(C)C)C(=O)N1)C(=O)N[C@@H](C)C(=O)O (single isomer, unassigned) [compound 421] | > 8.00 | > 8.00 | > 8.00 | > 8.00 | – | – | – | – | –

Now from value to compound, other results behind:

pIC50 [2] | pKi [2] | pIC50 [3] | pKi [3] | Compound | caspase 3 uM [1] | caspase 10 uM [1] | caspase 30 uM [1] | caspase 0.3 uM [1] | caspase 1 uM ([1]; 1 uM peptide)
7.00 to 8.00 | > 8.00 | 6.00 to 7.00 | 7.00 to 8.00 | CC(=O)N[C@@H](CC(C)C)C(=O)N[C@H](C(=O)N[C@@H](Cc1ccccc1)C(=O)N[C@]1(C)CCCCCCC=CCCC[C@@](C)(C(=O)N[C@@H](CO)C(=O)N[C@@H](C)C(=O)N[C@@H](Cc2ccccc2)C(=O)N[C@@H](C)C(N)=O)NC(=O)[C@H](CC2CCC2)NC(=O)[C@H](CCC(N)=O)NC(=O)[C@H](C)NC(=O)[C@H](Cc2c[nH]c3ccccc23)NC(=O)[C@H](Cc2ccc(O)cc2)NC(=O)[C@H](CCC(=O)O)NC1=O)[C@@H](C)O [compound 242] (Ac-LTF[R8]EYWAQ[Cba][S5]SAFA-NH2; staple 4-11) | 4 | 5 | 18 | 1 | –
7.00 to 8.00 | > 8.00 | 7.00 to 8.00 | 7.00 to 8.00 | CCCC[C@H](NC(=O)[C@H](C)NC(=O)[C@H](C)NC(=O)[C@]1(C)CCCC=CCCCCCC[C@@](C)(NC(=O)[C@H](Cc2ccccc2)NC(=O)[C@@H](NC(=O)[C@H](CC(C)C)NC(C)=O)[C@@H](C)O)C(=O)N[C@@H](CCC(=O)O)C(=O)N[C@@H](Cc2ccc(O)cc2)C(=O)N[C@@H](Cc2c[nH]c3ccccc23)C(=O)N[C@@H](C)C(=O)N[C@@H](CCC(N)=O)C(=O)N[C@@H](CC2CCC2)C(=O)N1)C(=O)N[C@@H](C)C(N)=O [compound 238] (Ac-LTF[R8]EYWAQ[Cba][S5]AA[Nle]A-NH2; staple 4-11) | 2 | 4 | 21 | 1 | –
7.00 to 8.00 | > 8.00 | 6.00 to 7.00 | 7.00 to 8.00 | CC(=O)N[C@@H](CC(C)C)C(=O)N[C@H](C(=O)N[C@@H](Cc1ccccc1)C(=O)N[C@]1(C)CCCCCCC=CCCC[C@@](C)(C(=O)N[C@@H](CO)C(=O)N[C@@H](C)C(=O)N[C@@H](Cc2ccccc2)C(N)=O)NC(=O)[C@H](CC2CCC2)NC(=O)[C@H](CCC(N)=O)NC(=O)[C@H](CO)NC(=O)[C@H](Cc2c[nH]c3ccccc23)NC(=O)[C@H](Cc2ccc(O)cc2)NC(=O)[C@H](C)NC1=O)[C@@H](C)O [compound 262] (Ac-LTF[R8]AYWSQ[Cba][S5]SAF-NH2; staple 4-11) | – | – | – | – | –
7.00 to 8.00 | > 8.00 | 7.00 to 8.00 | > 8.00 | CC(=O)N[C@@H](CC(C)C)C(=O)N[C@H](C(=O)N[C@@H](Cc1ccccc1)C(=O)N[C@]1(C)CCCCCCC=CCCC[C@@](C)(C(=O)N[C@@H](CCCNC(=N)N)C(=O)N[C@@H](C)C(=O)N[C@@H](C)C(N)=O)NC(=O)[C@H](CC2CCC2)NC(=O)[C@H](CCC(N)=O)NC(=O)[C@H](C)NC(=O)[C@H](Cc2c[nH]c3ccccc23)NC(=O)[C@H](Cc2ccc(O)cc2)NC(=O)[C@H](CCC(=O)O)NC1=O)[C@@H](C)O [compound 364] (Ac-LTF[R8]EYWAQ[Cba][S5]RAA-NH2; staple 4-11) | – | – | – | – | –
7.00 to 8.00 | > 8.00 | 7.00 to 8.00 | > 8.00 | CC(=O)N[C@@H](CC(C)C)C(=O)N[C@H](C(=O)N[C@@H](Cc1ccccc1)C(=O)N[C@]1(C)CCCCCCC=CCCC[C@@](C)(C(=O)N[C@@H](CO)C(=O)N[C@@H](CCCNC(=N)N)C(=O)N[C@@H](C)C(N)=O)NC(=O)[C@H](CC2CCC2)NC(=O)[C@H](CCC(N)=O)NC(=O)[C@H](C)NC(=O)[C@H](Cc2c[nH]c3ccccc23)NC(=O)[C@H](Cc2ccc(O)cc2)NC(=O)[C@H](CCC(=O)O)NC1=O)[C@@H](C)O [compound 365] (Ac-LTF[R8]EYWAQ[Cba][S5]SRA-NH2; staple 4-11) | – | – | – | – | –
